The species named for one assay is Homo sapiens. The assay can be described thus: Inhibition of ACVR1 (unknown origin) assessed as residual activity at 100 nM by KINOMEscan analysis relative to control.
For assay [1], the target named is T1, Serine/threonine-protein kinase 17A (Homo sapiens) (UniProt Q9UEE5).
T1 sequence (whole entry): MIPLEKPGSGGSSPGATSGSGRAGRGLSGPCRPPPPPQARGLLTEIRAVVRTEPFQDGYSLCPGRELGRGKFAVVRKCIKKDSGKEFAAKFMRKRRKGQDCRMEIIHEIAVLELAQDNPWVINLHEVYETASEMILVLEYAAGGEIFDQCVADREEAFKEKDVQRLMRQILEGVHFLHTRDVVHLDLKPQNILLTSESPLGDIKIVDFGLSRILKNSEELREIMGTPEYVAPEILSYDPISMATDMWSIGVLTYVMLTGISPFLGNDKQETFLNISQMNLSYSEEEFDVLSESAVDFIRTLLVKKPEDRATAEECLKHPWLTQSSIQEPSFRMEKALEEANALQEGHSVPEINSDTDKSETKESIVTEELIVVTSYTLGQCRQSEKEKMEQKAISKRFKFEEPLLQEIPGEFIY
As to the kind of experiment: Inhibition of DRAK1 (unknown origin) assessed as residual activity at 100 nM by KINOMEscan analysis relative to control.

The target of assay [2] is Dual specificity tyrosine-phosphorylation-regulated kinase 1A (Homo sapiens) (UniProt Q13627). As to the kind of experiment: Inhibition of DYRK1A (unknown origin) assessed as residual activity at 100 nM by KINOMEscan analysis relative to control.
The target of assay [3] is Ephrin type-A receptor 4 (Homo sapiens) (UniProt P54764). As to the kind of experiment: Inhibition of EPHA4 (unknown origin) assessed as residual activity at 100 nM by KINOMEscan analysis relative to control.
Assay [4] deals with T2, Ephrin type-A receptor 6 (Homo sapiens) (UniProt Q9UF33).
T2 sequence (whole entry): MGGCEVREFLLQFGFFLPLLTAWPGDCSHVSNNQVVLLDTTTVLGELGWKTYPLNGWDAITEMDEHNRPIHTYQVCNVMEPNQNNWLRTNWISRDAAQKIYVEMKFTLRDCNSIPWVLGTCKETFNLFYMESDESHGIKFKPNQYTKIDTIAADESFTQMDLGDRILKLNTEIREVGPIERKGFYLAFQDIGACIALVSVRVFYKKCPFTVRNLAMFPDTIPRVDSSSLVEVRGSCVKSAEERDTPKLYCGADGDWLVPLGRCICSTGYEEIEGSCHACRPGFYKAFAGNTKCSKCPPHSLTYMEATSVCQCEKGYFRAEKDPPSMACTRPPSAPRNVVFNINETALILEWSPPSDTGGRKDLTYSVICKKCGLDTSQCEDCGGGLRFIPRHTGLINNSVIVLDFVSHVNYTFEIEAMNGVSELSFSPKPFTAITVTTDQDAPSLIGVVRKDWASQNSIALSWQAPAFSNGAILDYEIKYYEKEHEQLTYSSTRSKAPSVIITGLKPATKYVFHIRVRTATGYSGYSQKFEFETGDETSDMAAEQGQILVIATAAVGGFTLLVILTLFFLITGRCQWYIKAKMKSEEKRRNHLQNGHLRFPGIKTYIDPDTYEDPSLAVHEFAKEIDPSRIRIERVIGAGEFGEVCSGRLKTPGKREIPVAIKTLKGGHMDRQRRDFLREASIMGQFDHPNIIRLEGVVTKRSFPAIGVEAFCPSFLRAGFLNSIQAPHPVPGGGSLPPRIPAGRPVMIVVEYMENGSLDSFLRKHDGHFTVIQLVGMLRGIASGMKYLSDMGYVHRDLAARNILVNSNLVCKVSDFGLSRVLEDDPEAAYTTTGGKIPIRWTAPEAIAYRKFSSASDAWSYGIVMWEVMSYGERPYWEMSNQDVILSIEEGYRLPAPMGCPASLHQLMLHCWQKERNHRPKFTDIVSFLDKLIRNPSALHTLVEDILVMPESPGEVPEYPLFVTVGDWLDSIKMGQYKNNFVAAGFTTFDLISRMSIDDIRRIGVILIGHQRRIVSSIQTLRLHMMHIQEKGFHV
As to the kind of experiment: Inhibition of EPHA6 (unknown origin) assessed as residual activity at 100 nM by KINOMEscan analysis relative to control.

In assay [5] the target is Tyrosine-protein kinase Fgr (Homo sapiens) (UniProt P09769). The assay can be described thus: Inhibition of FGR (unknown origin) assessed as residual activity at 100 nM by KINOMEscan analysis relative to control.
Assay [6] concerns Receptor-type tyrosine-protein kinase FLT3 (Homo sapiens), P36888 [UNDEFINED MUTATION]. The assay can be described thus: Inhibition of FLT3 ITD mutant (unknown origin) assessed as residual activity at 100 nM by KINOMEscan analysis relative to control.
Assay [7] concerns the target Calcium-dependent protein kinase 1 (Plasmodium falciparum) (UniProt P62344). The assay can be described thus: Inhibition of Plasmodium falciparum CDPK1 assessed as residual activity at 100 nM by KINOMEscan analysis relative to control.
Assay [8] addresses TRAF2 and NCK-interacting protein kinase (Homo sapiens) (UniProt Q9UKE5). The assay can be described thus: Inhibition of TNIK (unknown origin) assessed as residual activity at 100 nM by KINOMEscan analysis relative to control.

Sequence of TRAF2 and NCK-interacting protein kinase (Homo sapiens) (Q9UKE5 whole entry, looked up): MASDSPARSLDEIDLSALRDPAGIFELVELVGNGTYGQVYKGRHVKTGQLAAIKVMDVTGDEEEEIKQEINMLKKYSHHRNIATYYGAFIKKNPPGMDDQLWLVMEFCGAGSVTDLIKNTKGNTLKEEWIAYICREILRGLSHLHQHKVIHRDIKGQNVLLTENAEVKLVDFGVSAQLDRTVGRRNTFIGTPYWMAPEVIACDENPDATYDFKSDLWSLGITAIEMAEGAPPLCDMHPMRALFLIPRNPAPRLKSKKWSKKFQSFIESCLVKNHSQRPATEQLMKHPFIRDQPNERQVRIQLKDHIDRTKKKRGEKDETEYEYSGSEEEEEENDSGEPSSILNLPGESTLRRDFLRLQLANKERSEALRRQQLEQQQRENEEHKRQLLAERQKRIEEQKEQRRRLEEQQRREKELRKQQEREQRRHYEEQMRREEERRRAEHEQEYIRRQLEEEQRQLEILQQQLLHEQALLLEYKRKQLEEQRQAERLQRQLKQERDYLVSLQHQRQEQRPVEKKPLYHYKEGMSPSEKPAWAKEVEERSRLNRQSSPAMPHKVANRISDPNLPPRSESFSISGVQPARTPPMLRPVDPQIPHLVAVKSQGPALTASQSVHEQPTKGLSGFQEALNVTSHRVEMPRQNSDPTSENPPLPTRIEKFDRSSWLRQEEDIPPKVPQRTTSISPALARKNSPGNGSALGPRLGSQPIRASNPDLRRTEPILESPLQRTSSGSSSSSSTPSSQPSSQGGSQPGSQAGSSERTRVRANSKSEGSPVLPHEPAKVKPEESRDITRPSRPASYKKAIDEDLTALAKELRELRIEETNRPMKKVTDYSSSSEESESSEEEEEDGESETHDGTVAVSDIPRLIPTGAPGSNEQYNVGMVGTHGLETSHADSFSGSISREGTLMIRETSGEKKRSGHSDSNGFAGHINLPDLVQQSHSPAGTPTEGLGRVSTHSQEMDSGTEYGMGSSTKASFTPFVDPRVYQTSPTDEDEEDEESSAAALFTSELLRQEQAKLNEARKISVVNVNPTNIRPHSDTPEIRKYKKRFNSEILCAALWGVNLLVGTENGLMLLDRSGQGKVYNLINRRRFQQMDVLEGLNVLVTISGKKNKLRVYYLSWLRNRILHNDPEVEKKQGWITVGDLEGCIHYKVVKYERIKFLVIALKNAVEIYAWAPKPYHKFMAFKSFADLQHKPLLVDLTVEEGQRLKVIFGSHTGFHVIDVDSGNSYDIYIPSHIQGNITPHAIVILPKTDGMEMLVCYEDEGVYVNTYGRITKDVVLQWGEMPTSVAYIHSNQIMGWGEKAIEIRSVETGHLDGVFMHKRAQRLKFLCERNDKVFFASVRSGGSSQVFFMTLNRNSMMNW
Sequence of Receptor-type tyrosine-protein kinase FLT3 (Homo sapiens), P36888 [UNDEFINED MUTATION] (P36888 whole entry, looked up, change not shown): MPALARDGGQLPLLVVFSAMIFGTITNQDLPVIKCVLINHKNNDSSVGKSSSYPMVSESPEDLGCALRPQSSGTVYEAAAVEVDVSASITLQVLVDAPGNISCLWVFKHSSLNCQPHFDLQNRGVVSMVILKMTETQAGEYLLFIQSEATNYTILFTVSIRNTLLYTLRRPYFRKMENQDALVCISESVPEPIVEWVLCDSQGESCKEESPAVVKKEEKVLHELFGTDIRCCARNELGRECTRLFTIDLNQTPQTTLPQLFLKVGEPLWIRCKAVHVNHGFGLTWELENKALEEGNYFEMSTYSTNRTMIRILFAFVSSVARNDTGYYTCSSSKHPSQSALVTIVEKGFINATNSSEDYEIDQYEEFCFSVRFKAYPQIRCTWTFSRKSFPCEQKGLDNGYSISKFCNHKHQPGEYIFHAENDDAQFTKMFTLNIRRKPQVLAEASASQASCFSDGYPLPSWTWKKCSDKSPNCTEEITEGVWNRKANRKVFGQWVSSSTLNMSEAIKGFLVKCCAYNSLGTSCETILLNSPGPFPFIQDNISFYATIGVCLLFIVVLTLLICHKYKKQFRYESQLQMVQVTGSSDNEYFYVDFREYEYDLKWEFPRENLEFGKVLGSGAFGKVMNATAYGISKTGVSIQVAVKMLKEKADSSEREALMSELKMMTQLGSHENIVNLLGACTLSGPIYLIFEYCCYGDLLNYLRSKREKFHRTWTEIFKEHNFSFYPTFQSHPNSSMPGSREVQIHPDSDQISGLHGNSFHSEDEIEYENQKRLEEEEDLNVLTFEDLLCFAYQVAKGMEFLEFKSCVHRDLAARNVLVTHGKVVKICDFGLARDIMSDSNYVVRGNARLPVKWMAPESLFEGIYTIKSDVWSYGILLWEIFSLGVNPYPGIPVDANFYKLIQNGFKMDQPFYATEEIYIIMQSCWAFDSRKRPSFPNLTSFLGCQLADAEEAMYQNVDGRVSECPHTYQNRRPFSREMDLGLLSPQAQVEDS
Sequence of Tyrosine-protein kinase Fgr (Homo sapiens) (P09769 2-529 limits assumed): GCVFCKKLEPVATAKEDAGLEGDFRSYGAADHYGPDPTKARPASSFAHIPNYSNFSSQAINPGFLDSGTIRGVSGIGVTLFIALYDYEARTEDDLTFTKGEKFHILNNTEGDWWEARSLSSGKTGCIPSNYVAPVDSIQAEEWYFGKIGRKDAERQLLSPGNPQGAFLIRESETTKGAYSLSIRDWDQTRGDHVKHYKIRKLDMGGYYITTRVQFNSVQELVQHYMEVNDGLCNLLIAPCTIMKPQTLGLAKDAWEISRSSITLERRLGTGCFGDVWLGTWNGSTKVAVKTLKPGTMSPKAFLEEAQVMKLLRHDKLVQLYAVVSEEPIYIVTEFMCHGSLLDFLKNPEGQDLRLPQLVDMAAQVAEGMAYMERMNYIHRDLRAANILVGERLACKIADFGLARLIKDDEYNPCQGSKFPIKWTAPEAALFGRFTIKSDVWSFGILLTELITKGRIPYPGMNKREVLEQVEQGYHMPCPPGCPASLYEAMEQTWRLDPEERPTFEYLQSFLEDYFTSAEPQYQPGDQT
Sequence of Ephrin type-A receptor 4 (Homo sapiens) (P54764 whole entry): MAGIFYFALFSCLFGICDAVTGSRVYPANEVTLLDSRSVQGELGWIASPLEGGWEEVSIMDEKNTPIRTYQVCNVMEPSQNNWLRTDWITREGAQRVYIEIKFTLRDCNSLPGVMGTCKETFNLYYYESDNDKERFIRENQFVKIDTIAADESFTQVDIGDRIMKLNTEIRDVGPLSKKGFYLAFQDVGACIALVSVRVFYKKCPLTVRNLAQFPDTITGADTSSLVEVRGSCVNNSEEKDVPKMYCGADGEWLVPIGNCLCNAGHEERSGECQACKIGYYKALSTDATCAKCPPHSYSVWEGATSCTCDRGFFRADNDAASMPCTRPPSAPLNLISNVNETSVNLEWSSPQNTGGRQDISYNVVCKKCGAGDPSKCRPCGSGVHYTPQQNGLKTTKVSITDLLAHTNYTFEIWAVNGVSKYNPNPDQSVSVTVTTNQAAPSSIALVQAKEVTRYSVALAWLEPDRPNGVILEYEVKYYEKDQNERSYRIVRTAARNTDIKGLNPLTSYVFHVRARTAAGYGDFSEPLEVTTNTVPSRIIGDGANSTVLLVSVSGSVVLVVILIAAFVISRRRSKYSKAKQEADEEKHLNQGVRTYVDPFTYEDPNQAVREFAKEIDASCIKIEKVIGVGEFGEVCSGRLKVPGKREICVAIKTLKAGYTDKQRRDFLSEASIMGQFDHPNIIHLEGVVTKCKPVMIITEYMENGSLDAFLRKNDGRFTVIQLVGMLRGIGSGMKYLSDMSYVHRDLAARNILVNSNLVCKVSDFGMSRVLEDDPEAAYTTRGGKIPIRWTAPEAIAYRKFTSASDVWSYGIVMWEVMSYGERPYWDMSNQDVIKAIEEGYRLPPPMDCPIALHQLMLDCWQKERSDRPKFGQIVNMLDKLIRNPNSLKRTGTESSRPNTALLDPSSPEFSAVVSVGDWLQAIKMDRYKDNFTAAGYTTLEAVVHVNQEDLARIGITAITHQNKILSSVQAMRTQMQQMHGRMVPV
Sequence of Calcium-dependent protein kinase 1 (Plasmodium falciparum) (P62344 2-524 limits assumed): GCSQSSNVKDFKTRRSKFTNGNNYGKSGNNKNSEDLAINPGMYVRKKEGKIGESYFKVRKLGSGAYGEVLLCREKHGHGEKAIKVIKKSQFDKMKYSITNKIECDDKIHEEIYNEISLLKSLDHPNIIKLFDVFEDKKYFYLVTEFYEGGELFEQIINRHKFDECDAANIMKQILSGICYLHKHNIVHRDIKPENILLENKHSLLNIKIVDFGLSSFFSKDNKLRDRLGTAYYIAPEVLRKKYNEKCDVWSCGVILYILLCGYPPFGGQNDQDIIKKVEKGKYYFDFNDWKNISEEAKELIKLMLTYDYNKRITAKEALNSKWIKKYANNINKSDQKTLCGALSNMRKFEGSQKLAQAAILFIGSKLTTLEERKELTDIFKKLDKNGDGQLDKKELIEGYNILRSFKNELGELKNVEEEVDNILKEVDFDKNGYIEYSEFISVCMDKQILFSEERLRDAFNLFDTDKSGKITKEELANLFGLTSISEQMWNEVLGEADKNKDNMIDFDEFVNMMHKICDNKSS

For `COc1cc2ncnc(N[C@H](C)c3cccc4ccccc34)c2cc1OC`, the Activity in the assay filed under Homo sapiens was determined as 83%; in assay [1], 100%; in assay [2], 90%; in [3] it was 86%; in assay [4], 77%; in assay [5], 81%. The Activity in assay [6] worked out at 100%; in assay [7], 84%; in [8] it was 100%.

These data come from ChEMBL document CHEMBL5678818, “Discovery of potent SOS1 inhibitors that block RAS activation via disruption of the RAS-SOS1 interaction” (Proc Natl Acad Sci U S A, 2019).
